The values that follow come from ChEMBL document CHEMBL1201862, “PubChem BioAssay data set” (2004).

Some test systems named below: HL-60; SK-OV-3; ACHN; RXF 393; UACC-62; SF-539; IGROV-1; HCC 2998; HOP-92; SN12C; SK-MEL-28; K562; SF-295; OVCAR-4; UACC-257; HT-29; PC-3; MDA-MB-435; T47D.
What all share (assay): NCI anticancer screen, dose series, 48 h

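Dose response: 5 concentrations. Exposure: 48 h. Format: 96-well plates. Endpoint: linear interpolation; highest concentration if not reached. GI50: concentration for 50% inhibition of growth.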 Active and inactive are the calls of the source. Cut-off read from the data, not from the text of the source: active = GI50 up to about 1.1 µM and inactive = higher.

As for `COc1ccccc1NS(=O)(=O)c1cc(C(C)(C)C)ccc1OCCOc1ccc(C(C)(C)C)cc1S(=O)(=O)Nc1ccccc1OC`, the GI50 in the assay on HL-60, in the assay with SK-OV-3, with ACHN, in the assay on RXF 393, in the assay on UACC-62 and in the assay with SF-539 was > 100 µM (inactive) each time. In addition, the GI50 in the assay with IGROV-1, in the assay on HCC 2998, with HOP-92, with SN12C, in the assay with SK-MEL-28 and with K562 was > 100 µM (inactive) each time. Moreover, the GI50 in the assay on SF-295, in the assay with OVCAR-4, in the assay with UACC-257 and in the assay with HT-29 was > 100 µM (inactive) throughout.
For the compound `O=C(Nc1ccccc1-c1n[nH]c(S)nc1=O)C(F)(F)F`, the GI50 with SK-OV-3, in the assay on ACHN, in the assay on RXF 393, with UACC-62, in the assay on SF-539 and in the assay with IGROV-1 was > 100 µM (inactive) throughout. Besides, the GI50 in the assay with HCC 2998, in the assay with HOP-92, in the assay on SN12C, in the assay with SK-MEL-28, in the assay with K562 and in the assay on SF-295 was > 100 µM (inactive) each time. The GI50 in the assay on OVCAR-4 and in the assay on HT-29 was > 100 µM (inactive) each time.
Take `Cn1c(=O)c2c(nc3n2C(CCl)CO3)n(C)c1=O` (centres undefined): the GI50 in the assay on HL-60, with SK-OV-3, in the assay with ACHN, in the assay on UACC-62, with SF-539 and in the assay on IGROV-1 was > 100 µM (inactive) in each case. The GI50 with HCC 2998, in the assay on HOP-92, in the assay on SN12C, in the assay on SK-MEL-28, in the assay with K562 and with SF-295 was > 100 µM (inactive) throughout. Moreover, the GI50 in the assay with OVCAR-4, in the assay with UACC-257 and in the assay on HT-29 was > 100 µM (inactive) throughout.
On to `CN(CCCCCl)P(=O)(OCc1ccc([N+](=O)[O-])o1)OC[C@H]1O[C@@H](n2cc(F)c(=O)[nH]c2=O)C[C@@H]1O` (some centres undefined), for which the GI50 with HL-60 is 0.766 µM (active); with SK-OV-3, 0.372 µM (active); in the assay with ACHN, 0.0365 µM (active); with RXF 393, 0.302 µM (active); in the assay with PC-3, 4.34 µM (inactive); in the assay on UACC-62 it was 0.437 µM (active). In addition, the GI50 in the assay on SF-539 was < 0.01 µM (active); in the assay on IGROV-1, 1.58 µM (inactive); in the assay on MDA-MB-435 it was 5.85 µM (inactive); in the assay on HCC 2998, < 0.01 µM (active); with HOP-92 it was 0.64 µM (active); with SN12C it was 0.107 µM (active). The GI50 in the assay with SK-MEL-28 was 21.2 µM (inactive); in the assay with K562 it was 12.4 µM (inactive); in the assay on SF-295 it was 0.0914 µM (active); in the assay with OVCAR-4, 12.8 µM (inactive); with UACC-257, 30.8 µM (inactive); with HT-29, 0.502 µM (active).
In the case of `O=C(OCc1ccccc1)C(Cc1ccc(OCc2ccccc2)cn1)NC(=O)C(F)(F)F` (centres undefined), the GI50 was 56.2 µM (inactive) in the assay on HL-60; > 100 µM (inactive) with ACHN; > 100 µM (inactive) in the assay on RXF 393; > 100 µM (inactive) with PC-3; > 100 µM (inactive) in the assay on SF-539; > 100 µM (inactive) in the assay with IGROV-1. For the same compound, the GI50 with MDA-MB-435 is 92.9 µM (inactive); in the assay with HCC 2998, > 100 µM (inactive); in the assay on HOP-92, > 100 µM (inactive); in the assay with SN12C, > 100 µM (inactive); in the assay on SK-MEL-28, > 100 µM (inactive); in the assay with K562 it was 42.8 µM (inactive). In addition, the GI50 is > 100 µM (inactive) with SF-295, > 100 µM (inactive) in the assay with OVCAR-4, > 100 µM (inactive) in the assay with UACC-257 and 57.9 µM (inactive) in the assay on HT-29.
As to `O=[N+]([O-])c1ccc(/C=C/c2ccc(/N=N/c3ccc(/C=C/c4ccc([N+](=O)[O-])cc4S(=O)(=O)O)c(S(=O)(=O)O)c3)cc2S(=O)(=O)O)c(S(=O)(=O)O)c1`, the GI50 in the assay on HL-60, in the assay with SK-OV-3, in the assay on RXF 393, in the assay on UACC-62, with SF-539 and in the assay on IGROV-1 was > 100 µM (inactive) throughout. The GI50 in the assay on HCC 2998 is 43.6 µM (inactive); with HOP-92 it was > 53.1 µM (inactive); in the assay with SN12C, > 100 µM (inactive); with SK-MEL-28, > 100 µM (inactive); with K562, > 100 µM (inactive); with SF-295 it was > 100 µM (inactive). Besides, the GI50 in the assay with OVCAR-4 is > 56.8 µM (inactive); in the assay with UACC-257 it was > 100 µM (inactive); with HT-29, > 100 µM (inactive).
Consider `CN(CCNC(=O)c1c[nH]c2c1Cc1ccccc1-2)CCNC(=O)c1c[nH]c2c1Cc1ccccc1-2`, for which the GI50 in the assay on HL-60 was 31 µM (inactive); in the assay with ACHN, 43.6 µM (inactive); in the assay with RXF 393 it was 30.5 µM (inactive); in the assay on PC-3, 18.2 µM (inactive); with UACC-62, 18 µM (inactive); in the assay on SF-539, 19.5 µM (inactive). Moreover, the GI50 with IGROV-1 was 27.9 µM (inactive); with MDA-MB-435 it was 17.1 µM (inactive); in the assay with HCC 2998, 52.6 µM (inactive); with HOP-92, 22.6 µM (inactive); in the assay on SN12C, 66.4 µM (inactive); in the assay with SK-MEL-28, 48.5 µM (inactive). In addition, the GI50 in the assay with K562 is 30.3 µM (inactive); in the assay on SF-295 it was 26.9 µM (inactive); in the assay on OVCAR-4, 59.3 µM (inactive); in the assay with UACC-257, 43.8 µM (inactive); with HT-29, 35.1 µM (inactive).
Take `Cc1ccc(S(=O)(=O)N(CCN)c2cc3c4c(c2)Oc2cccc5c2C4c2c(cccc2O3)O5)cc1`: the GI50 is 27 µM (inactive) in the assay on SK-OV-3; 44.7 µM (inactive) with ACHN; 18.7 µM (inactive) with PC-3; 47.3 µM (inactive) in the assay with UACC-62; 18.8 µM (inactive) with SF-539; 11 µM (inactive) in the assay with IGROV-1. Further, the GI50 is 20.7 µM (inactive) in the assay with MDA-MB-435; > 100 µM (inactive) in the assay with HCC 2998; 0.9 µM (active) in the assay with HOP-92; 34 µM (inactive) in the assay with SN12C; 25.2 µM (inactive) in the assay on SK-MEL-28; 30 µM (inactive) with K562. Also, the GI50 with SF-295 was 21.9 µM (inactive); with OVCAR-4, > 10 µM (inactive); in the assay on UACC-257 it was 30.5 µM (inactive); in the assay with HT-29 it was 14.9 µM (inactive).
Regarding `O=P(O)(Cc1ccccc1)c1ccccc1-c1ccccc1`, the GI50 in the assay with HL-60 is > 100 µM (inactive); in the assay with SK-OV-3, > 100 µM (inactive); in the assay with T47D, > 100 µM (inactive); in the assay on ACHN, > 100 µM (inactive); in the assay with RXF 393 it was 54.6 µM (inactive); with PC-3, > 100 µM (inactive). Also, the GI50 in the assay on UACC-62, with SF-539, with IGROV-1, in the assay with HCC 2998, in the assay with SN12C and in the assay with SK-MEL-28 was > 100 µM (inactive) each time. For the same compound, the GI50 in the assay on K562, in the assay with SF-295, in the assay on OVCAR-4, with UACC-257 and with HT-29 was > 100 µM (inactive) throughout.
On to `Cc1nc2nnc(CCCCCCCCc3nnc4nc(C)[nH]n34)n2[nH]1`, for which the GI50 in the assay with HL-60, with SK-OV-3, with ACHN, with RXF 393, in the assay with PC-3 and in the assay with SF-539 was > 100 µM (inactive) throughout. Further, the GI50 with IGROV-1, with MDA-MB-435, in the assay with HCC 2998, with HOP-92, in the assay with SN12C and in the assay with SK-MEL-28 was > 100 µM (inactive) in each case. The GI50 in the assay with K562, in the assay with SF-295, in the assay with OVCAR-4, in the assay with UACC-257 and in the assay with HT-29 was > 100 µM (inactive) in each case.
`O=C1CC(CC(O)[C@@H]2CCCC[C@@H]2O)CC(=O)N1c1ccccc1` (some centres undefined): the GI50 with HL-60, in the assay with ACHN, in the assay on RXF 393, in the assay with PC-3, with UACC-62 and with SF-539 was > 100 µM (inactive) throughout. For the same compound, the GI50 was > 100 µM (inactive) with IGROV-1; > 100 µM (inactive) in the assay with MDA-MB-435; > 100 µM (inactive) with HCC 2998; 83.8 µM (inactive) with HOP-92; > 100 µM (inactive) in the assay on SN12C; > 100 µM (inactive) in the assay on SK-MEL-28. For the same compound, the GI50 in the assay with K562, with SF-295, with OVCAR-4, in the assay on UACC-257 and in the assay on HT-29 was > 100 µM (inactive) in each case.
For the compound `CC(C)(C)c1ccc(OCCOCCOc2ccc(C(C)(C)C)cc2S(N)(=O)=O)c(S(N)(=O)=O)c1`, the GI50 in the assay with HL-60 was 14.5 µM (inactive); in the assay on SK-OV-3 it was > 100 µM (inactive); in the assay on ACHN, 29.1 µM (inactive); in the assay on RXF 393, 20.2 µM (inactive); in the assay with UACC-62, 52.1 µM (inactive); with SF-539 it was > 100 µM (inactive). For the same compound, the GI50 with IGROV-1 is > 100 µM (inactive); in the assay with HCC 2998, > 100 µM (inactive); with HOP-92, 24.6 µM (inactive); in the assay with SN12C, > 100 µM (inactive); in the assay on SK-MEL-28, 94.6 µM (inactive); with K562, > 100 µM (inactive). The GI50 in the assay with SF-295 was > 100 µM (inactive); in the assay on OVCAR-4 it was > 100 µM (inactive); in the assay on UACC-257, 45.6 µM (inactive); with HT-29, 6.84 µM (inactive).
